Assay results taken from patent publication EP0156224A2, “Novel benzoxathiin derivative, process for preparing them and pharmaceutical composition” (SUNTORY LIMITED, priority 1984, dated 1985).
Read-outs that look alike come from different tables or passages of the source.

How the values were obtained:
ddy male mouse = test: Anti-arrhythmic effect: prevention of chloroform-induced ventricular flutter and fibrillation; type: in vivo; conditions: ip, 0.5 h, read-out: Anti-arrhythmic effect (ED50)
Protocol: When a compound showing an anti-arrhythmic effect is previously administered, such an irregular ventricular appearance is prevented. The compound of this invention was intraperioneally administered in various dosages to the groups of 29 - 40 mice. After 30 minutes the mice were subjected to the inhalation of chloroform, and the preventive ratios of the venticular flutter and fibrillation were measured for respective dosages.

[1] = tested on: SHR (spontaneous hypertensive rat); test: Effect on mean blood pressure in conscious spontaneously hypertensive rats; type: in vivo; conditions: for mean blood pressure % Exchange: conscious SHR, mean ±SEM
Excerpt: In order to measure the blood pressure of a SHR (spontaneous hypertensive rat), a polyethylene tube was inserted into an artery to a level of the abdominal aorta through the crural artery, and the other end of the tube was tightly stoppered by a metal rod, extended subcutaneously and exposed out of the body at the posterior of the neck and fixed by suturation to the surrounding skin. The tube was filled with 500 U of heparin.
On the day subsequent to the operation, the blood pressure was measured without anesthetization or restriction using a pressure transducer and continously recorded on a thermal recording system together with the heart rate which was measured by driving a tachometer with the pulse wave of blood pressure.
The test drugs were dissolved in physiological saline and administered using a sound (p.o.)

in vivo = conditions: mouse, ddy male mice, mortality within 1 week
β-Receptor = test: β-receptor blocking effect: 3H-dihydroalprenolol binding to synaptosome membrane of rat brain
Protocol: Spraque-Dawley male rats having 150 - 200 g body weight were decapitated, and the brains were quickly taken out and, after decortication, frozen at -70°C. After freezing overnight at -70°C, the thawed brain was homogenized with a buffer [0.25 mole sucrose, 5 mmole tris(hydroxymethyl)aminomethane hydrochloride, 1 mmole magnesium chloride, pH 7.4] in an amount of 8 times the weight of the brain. The homogenate was centrifuged at 800 x g for 20 minutes, and the supernatant was centrifuged at 14,000 x g for 14 minutes, the deposit of which was washed three times with the above-mentioned buffer. The deposit finally obtained was suspended again in a buffer of 75 mmole tris(hydroxymethyl)aminomethane and 25 mmole magnesium chloride (pH 7.4) to form a membrane specimen.
To 50 1 of the membrane specimen were added 50 1 of ^3H-dihydroalprenolol (^3H-OHA) and 50 1 of the mixture of the test frug and the buffer, such that the total volume was adjusted to 150 1, and the mixture was incubated at 37°C for 10 minutes.
The reaction was stopped by adding an ice-cooled mixture of 50 mmole tris(hydroxymethyl)aminomethane hydrochloride and 17 mmole magnesium chloride (pH 7.4), and the mixture was filtered under reduced pressure through a Whatman GF/B glassfiber. The filter was washed three times and dried, and a toluene type scintillator was added to measure the radioactivity.
. In the measurement, the amount obtained by subtracting the bondings obtained in the presence of 10^-5 mole propranolol from the total bondings was considered to represent the specific bondings of the S-receptor. In addition, the determination of protein was carried out according to the method of Lowry et al. [Lowry, O.H. et al., J. Biol. Chem., 193, 265-275 (1951)].

[2] = intraperitoneal, chloroform inhalation after 30 minutes, mice
[3] = iv, caudal vein, read-out: Acute toxicity (LD50) intra-venous
[4] = po, in stomach, read-out: Acute toxicity (LD50) in stomach
[5] = 10^-5 mole test compound, 10 µM

Structure (SMILES): CC(C)(C)NCC(O)COc1cccc2c1CCC(=O)N2 (stereo not drawn) [carteolol, reference compound]
- ED50 (ddy male mouse; [2]): 400 mg/kg
- mean blood pressure % Exchange ([1]; 0.1 mg/kg p.o., 10 min): 1.4 ± 2.1%
- mean blood pressure % Exchange ([1]; 0.1 mg/kg p.o., 20 min): -9.2 ± 4.0%
- mean blood pressure % Exchange ([1]; 0.1 mg/kg p.o., 30 min): -11.3 ± 3.9 %
- mean blood pressure % Exchange ([1]; 0.1 mg/kg p.o., 90 min): -18.1 ± 3.7 %
- mean blood pressure % Exchange ([1]; 0.1 mg/kg p.o., 120 min): -12.7 ± 6.5%
- mean blood pressure % Exchange ([1]; 0.1 mg/kg p.o., 3 hr): -15.4 ± 3.3 %
- mean blood pressure % Exchange ([1]; 0.1 mg/kg p.o., 4 hr): -15.1 ± 3.7 %
- mean blood pressure % Exchange ([1]; 0.1 mg/kg p.o., 5 hr): -18.8 ± 1.3 %
- mean blood pressure % Exchange ([1]; 0.1 mg/kg p.o., 6 hr): -20.8 ± 1.7 %
- mean blood pressure % Exchange ([1]; 0.1 mg/kg p.o., 24 hr): -2.1 ± 2.5%
- mean blood pressure % Exchange ([1]; 1 mg/kg p.o., 10 min): 2.5 ± 3.2%
- mean blood pressure % Exchange ([1]; 1 mg/kg p.o., 20 min): -1.4 ± 2.6%
- mean blood pressure % Exchange ([1]; 1 mg/kg p.o., 30 min): -5.1 ± 3.6%
- mean blood pressure % Exchange ([1]; 1 mg/kg p.o., 60 min): -11.7 ± 3.3 %
- mean blood pressure % Exchange ([1]; 1 mg/kg p.o., 90 min): -14.7 ± 3.6 %
- mean blood pressure % Exchange ([1]; 1 mg/kg p.o., 120 min): -23.8 ± 3.0 %
- mean blood pressure % Exchange ([1]; 1 mg/kg p.o., 3 hr): -23.1 ± 4.8 %
- mean blood pressure % Exchange ([1]; 1 mg/kg p.o., 4 hr): -24.4 ± 4.2 %
- mean blood pressure % Exchange ([1]; 1 mg/kg p.o., 5 hr): -24.7 ± 4.7 %
- mean blood pressure % Exchange ([1]; 1 mg/kg p.o., 6 hr): -21.3 ± 4.2 %
- mean blood pressure % Exchange ([1]; 1 mg/kg p.o., 24 hr): -2.1 ± 4.5%
- LD50 at 168 h (in vivo; [3]): 38 mg/kg

Structure (SMILES): CC(C)NCC(O)COc1cccc2c1OS(=O)(=O)CC2 (stereo not drawn) [Example 3, 8-(3-isopropylamino-2-hydroxypropoxy)-3,4-dihydro-1,2-benzoxathiin-2,2-dioxide]
- ED50 (ddy male mouse; [2]): 0.23 mg/kg
- LD50 at 168 h (in vivo; [3]): 68.2 mg/kg
- LD50 at 168 h (in vivo; [4]): > 500 mg/kg
- β-Receptor blocking effect Inhibition (%) (β-Receptor; [5]): 91.6%
- β-Receptor blocking effect Inhibition (%) (β-Receptor; 10^-6 mole test compound, 1 µM): 97.6%

Structure (SMILES): CNCC(O)COc1cccc2c1OS(=O)(=O)CC2 (stereo not drawn) [Example 1, 8-(3-methylamino-2-hydroxypropoxy)-3,4-dihydro-1,2-benzoxathiin-2,2-dioxide]
- β-Receptor blocking effect Inhibition (%) (β-Receptor; [5]): 73.9%
- β-Receptor blocking effect Inhibition (%) (β-Receptor; 10^-6 mole test compound, 1 µM): 35.4%

Structure (SMILES): CC(C)NCC(O)COc1cccc2ccccc12 (stereo not drawn) [propranolol, reference compound]
- ED50 (ddy male mouse): 2.2 mg/kg

Structure (SMILES): CC(C)CNCC(O)COc1cccc2c1OS(=O)(=O)CC2 (stereo not drawn) [Example 6, 8-(3-isobutylamino-2-hydroxypropoxy)-3,4-dihydro-l,2-benzoxathiin-2,2-dioxide]
- β-Receptor blocking effect Inhibition (%) (β-Receptor; [5]): 81.9%
- β-Receptor blocking effect Inhibition (%) (β-Receptor; 10^-6 mole test compound, 1 µM): 41.7%

Structure (SMILES): CC(C)(C)NCC(O)COc1cccc2c1OS(=O)(=O)CC2 (stereo not drawn) [Example 4, 8-(3-t-butylamino-2-hydroxypropoxy)-3,4-dihydro-l,2-benzoxathiin-2,2-dioxide]
- ED50 (ddy male mouse; [2]): 0.03 mg/kg
- mean blood pressure % Exchange ([1]; 0.1 mg/kg p.o., 10 min): 6.4 ± 3.5%
- mean blood pressure % Exchange ([1]; 0.1 mg/kg p.o., 20 min): 4.6 ± 3.2%
- mean blood pressure % Exchange ([1]; 0.1 mg/kg p.o., 30 min): 4.1 ± 2.6%
- mean blood pressure % Exchange ([1]; 0.1 mg/kg p.o., 60 min): -4.2 ± 3.8%
- mean blood pressure % Exchange ([1]; 0.1 mg/kg p.o., 90 min): -6.5 ± 3.2%
- mean blood pressure % Exchange ([1]; 0.1 mg/kg p.o., 120 min): -7.3 ± 5.9%
- mean blood pressure % Exchange ([1]; 0.1 mg/kg p.o., 3 hr): -8.9 ± 3.0%
- mean blood pressure % Exchange ([1]; 0.1 mg/kg p.o., 4 hr): -13.0 ± 2.5 %
- mean blood pressure % Exchange ([1]; 0.1 mg/kg p.o., 5 hr): -14.7 ± 2.5 %
- mean blood pressure % Exchange ([1]; 0.1 mg/kg p.o., 6 hr): -14.8 ± 2.4 %
- mean blood pressure % Exchange ([1]; 0.1 mg/kg p.o., 24 hr): -2.8 ± 4.2%
- mean blood pressure % Exchange ([1]; 1 mg/kg p.o., 10 min): 1.4 ± 1.2%
- mean blood pressure % Exchange ([1]; 1 mg/kg p.o., 20 min): -0.3 ± 1.7%
- mean blood pressure % Exchange ([1]; 1 mg/kg p.o., 30 min): -8.1 ± 2.9 %
- mean blood pressure % Exchange ([1]; 1 mg/kg p.o., 60 min): -12.0 ± 4.3 %
- mean blood pressure % Exchange ([1]; 1 mg/kg p.o., 90 min): -10.9 ± 2.8 %
- mean blood pressure % Exchange ([1]; 1 mg/kg p.o., 120 min): -14.5 ± 4.3 %
- mean blood pressure % Exchange ([1]; 1 mg/kg p.o., 3 hr): -16.3 ± 4.1 %
- mean blood pressure % Exchange ([1]; 1 mg/kg p.o., 4 hr): -20.0 ± 3.7 %
- mean blood pressure % Exchange ([1]; 1 mg/kg p.o., 5 hr): -24.5 ± 4.0 %
- mean blood pressure % Exchange ([1]; 1 mg/kg p.o., 6 hr): -24.1 ± 3.3 %
- mean blood pressure % Exchange ([1]; 1 mg/kg p.o., 24 hr): -11.5 ± 6.2%
- duration of hypotensive effect ([1]; result in words, SHR, p.o., after 24 hours): remains effective even after 24 hours
- hypotensive effect ([1]; result in words, SHR, p.o., compared with carteolol): excellent hypotensive effect at almost the same level as carteolol
- LD50 at 168 h (in vivo; [3]): 59.2 mg/kg
- LD50 at 168 h (in vivo; [4]): > 500 mg/kg
- β-Receptor blocking effect Inhibition (%) (β-Receptor; [5]): 91.4%
- β-Receptor blocking effect Inhibition (%) (β-Receptor; 10^-6 mole test compound, 1 µM): 96.3%

Structure (SMILES): CCCC(=O)Nc1ccc(OCC(O)CNC(C)C)c(C(C)=O)c1 (stereo not drawn) [acebutolol, reference compound]
- ED50 (ddy male mouse; [2]): 47 mg/kg

Structure (SMILES): CN(C)CC(O)COc1cccc2c1OS(=O)(=O)CC2 (stereo not drawn) [Example 2, 8-(3-dimethylamino-2-hydroxypropoxy)-3,4-dihydro-1,2-benzoxathiin-2,2-dioxide]
- β-Receptor blocking effect Inhibition (%) (β-Receptor; [5]): 62.6%
- β-Receptor blocking effect Inhibition (%) (β-Receptor; 10^-6 mole test compound, 1 µM): 17.1%

Structure (SMILES): CCC(C)NCC(O)COc1cccc2c1OS(=O)(=O)CC2 (stereo not drawn) [Example 5, 8-(3-sec-butylamino-2-hydroxypropoxy)-3,4-dihydro-1,2-benzoxathiin-2,2-dioxide]
- ED50 (ddy male mouse; [2]): 1.3 mg/kg
- LD50 at 168 h (in vivo; [3]): 68.2 mg/kg
- LD50 at 168 h (in vivo; [4]): > 500 mg/kg
- β-Receptor blocking effect Inhibition (%) (β-Receptor; [5]): 95.3%
- β-Receptor blocking effect Inhibition (%) (β-Receptor; 10^-6 mole test compound, 1 µM): 83.0%

Structure (SMILES): COc1ccc(CCNCC(O)COc2cccc3c2OS(=O)(=O)CC3)cc1OC (stereo not drawn) [Example 7, 8-[3-(3,4-dimethoxyphenethylamino)-2-hydroxy-propoxy]-3,4-dihydro-1,2-benzoxathiin-2,2-dioxide]
- β-Receptor blocking effect Inhibition (%) (β-Receptor; [5]): 90.1%
- β-Receptor blocking effect Inhibition (%) (β-Receptor; 10^-6 mole test compound, 1 µM): 75.2%
